The subject of series [1] is Bermudagrass, Centipedegrass, St. Augustinegrass, Zoysiagrass. Description: Subsequent testing of spray applications on warm-season turfgrasses. It counts as in vivo. Particulars: Zoysiagrass and mixtures. The text has this: (§1) Accordingly new treatments using aminocyclopyrachlor and its derivatives are needed for successful selective weed control in turf comprising warm-season turfgrasses.

A further series deals with Bermudagrass. The note with it: postemergence spray application, 31 g ai/ha; cited from earlier work.
A further series has as its system cool-season turfgrasses. The series can be described thus: Subsequent testing of spray applications on cool-season turfgrasses. It counts as in vivo. The note with it: most cool-season turfgrasses.
Excerpt: as §1

In series [2] the test system is perennial ryegrass, fine fescue, Kentucky bluegrass, tall fescue, zoysiagrass, St. Augustinegrass, centipedegrass. The note with it: cited from earlier work.
In a further series the test system is weeds. The note with it: mesotrione applied in a granular composition; cited from earlier work.

Take `COC(=O)c1nc(C2CC2)nc(N)c1Cl` [Compound 1, methyl 6-amino-5-chloro-2-cyclopropyl-4-pyrimidinecarboxylate]: the “phytotoxicity of spray applications to warm-season turfgrasses” value in series [1] is on record as “unacceptable phytotoxicity”. In the series with Bermudagrass, the “injury to Bermudagrass” value is 60%. The “safety of spray applications to cool-season turfgrasses” value in the series on cool-season turfgrasses was “sufficient safety”.

As to `CS(=O)(=O)c1ccc(C(=O)C2C(=O)CCCC2=O)c([N+](=O)[O-])c1` [mesotrione], the “damage/phytotoxicity to turfgrass varieties, formulations in spray form” value in series [2] (mesotrione applied as a liquid in spray form) is “unacceptable levels of damage/phytotoxicity”. For the same molecule, the “phytotoxicity to turfgrasses, granular composition” value in series [2] (mesotrione applied in a granular composition) is “reduced to insignificant levels”. Moreover, the “weed control, granular composition” value in the series on weeds is on record as “good weed control”.

These data come from patent US20110059848A1, “GRANULAR TURF SAFE HERBICIDAL COMPOSITIONS” (E. I. DU PONT DE NEMOURS AND COMPANY, priority 2007, published 2011).
